Numbered stars: 1 amine (or outer) side, 2 acyl side, 3 side chain; on linkers, the order of the positions; unused ones are H or OH. Bridge positions count the residues as written; N and C are the ends. Peptide text beside a SMILES is read from it. * marks the point of attachment. C20 diacid = O=C(O)CCCCCCCCCCCCCCCCCCC(=O)*; γGlu = O=C(O)[C@H](CCC(=O)[*:2])N[*:1]
Experiments:
human amylin receptor = molecular target: T1, human amylin receptor (Homo sapiens, UniProt O60896+P30988); assay: Assay (V) binding to the human amylin receptor (SPA, 125I-rat amylin)
T1 construct: expressed in transfected cells
T1 sequence (P30988 25-474): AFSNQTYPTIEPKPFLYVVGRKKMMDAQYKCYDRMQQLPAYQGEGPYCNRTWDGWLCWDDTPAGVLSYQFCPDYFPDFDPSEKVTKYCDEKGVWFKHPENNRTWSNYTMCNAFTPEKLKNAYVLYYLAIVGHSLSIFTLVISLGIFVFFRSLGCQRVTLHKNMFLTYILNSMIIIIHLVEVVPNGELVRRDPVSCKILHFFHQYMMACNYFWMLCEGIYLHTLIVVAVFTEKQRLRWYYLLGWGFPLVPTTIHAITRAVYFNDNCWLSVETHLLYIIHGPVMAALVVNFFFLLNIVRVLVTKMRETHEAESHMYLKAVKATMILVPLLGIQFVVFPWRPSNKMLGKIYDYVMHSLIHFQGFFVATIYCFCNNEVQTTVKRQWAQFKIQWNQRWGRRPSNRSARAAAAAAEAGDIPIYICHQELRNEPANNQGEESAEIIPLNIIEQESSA
T1 sequence (O60896 24-148 partner): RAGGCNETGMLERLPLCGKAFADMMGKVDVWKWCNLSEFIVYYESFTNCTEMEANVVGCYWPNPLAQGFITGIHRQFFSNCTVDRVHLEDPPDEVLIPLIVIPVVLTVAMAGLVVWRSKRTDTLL
Protocol: The binding assay was performed using scintillation proximity assay (SPA) beads (RPNQ0001) from PerkinElmer and cell membranes from the Amylin 3(a)/CRE-luc cells (as described in Assay (II)) were used. Membranes were prepared in the following way; the cells were rinsed with PBS and incubated with Versene for approximately 5 min before harvesting. The cells were flushed with PBS and the cell-suspension was centrifuged for 5 min at 1000 rpm. […] The resulting pellet was resuspended in buffer 2 and protein concentration was measured (BCA protein Assay, Pierce). The homogenate was kept cold during the whole procedure. The membranes were kept at −80° C. until use. The assay was performed in a 384 well Optiplate (PerkinElmer) in a total volume of 40 ul. Membranes were mixed with SPA beads. Final concentration of membranes 35 ng/μL final and SPA beads was 0.05 mg/well. Test-compounds were dissolved in DMSO and further diluted in assay buffer (50 mM Hepes, pH 7.4, 1 mM CaCl2, 5 mM MgCl2, 0.1% OA and 0.02% Tween20). […] Samples were analyzed on TopCounter™ (Packard). The IC50 was calculated using (one site binding competition analysis) GraphPad Prism5 as a measure of receptor affinity.

[1] = molecular target: T2, human amylin receptor (amylin 3(a) receptor: human calcitonin receptor + RAMP-3) (Homo sapiens, UniProt O60896+P30988); assay: Assay (II)a functional assay, human amylin receptor (CRE luciferase, BHK cells); type: cell-based
T2 construct: expressed in transfected cells
T2 sequence (P30988 25-474): T1 sequence (P30988 25-474)
T2 sequence (O60896 24-148 partner): T1 sequence (O60896 24-148 partner)

[2] = human binding ratio, included for comparison
[3] = Table 6, human functional selectivity (hCTR EC50 / hAmylin-R EC50)

| Compound | Ratio hCT/hAmylin binding (human amylin receptor; [2]) | Ratio hCT/hAmylin funct. [1, 3] | Ratio hCT/hAmylin binding (human amylin receptor; Table 7b, human calcitonin receptor binding IC50 divided by human amylin receptor binding IC50) | Ratio hCT/hAmylin binding (human amylin receptor; Table 7c, human calcitonin receptor binding IC50 divided by human amylin receptor binding IC50) | Ratio hCT/hAmylin funct. ([1]; Table 6a, human functional selectivity (hCTR EC50 / hAmylin-R EC50), at least 5) | Ratio hCT/hAmylin funct. ([1]; Table 6i, hCTR funct. EC50 / hAmylin-R funct. EC50) | Ratio hCT/hAmylin funct. ([1]; Table 6j, hCTR funct. EC50 / hAmylin-R funct. EC50) | Ratio hCT/hAmylin funct. ([1]; Table 6k, hCTR funct. EC50 / hAmylin-R funct. EC50) | Ratio hCT/hAmylin funct. ([1]; hCTR funct. EC50 divided by hAmylin-R funct. EC50) |
| --- | --- | --- | --- | --- | --- | --- | --- | --- | --- |
| CC[C@H](C)[C@H](NC(=O)[C@H](C)NC(=O)CNC(=O)[C@H](Cc1ccccc1)NC(=O)[C@H](CC(N)=O)NC(=O)[C@@H]1CCCN1C(=O)[C@H](CO)NC(=O)[C@H](CO)NC(=O)[C@H](Cc1c[nH]cn1)NC(=O)[C@H](CCCNC(=N)N)NC(=O)[C@H](CC(C)C)NC(=O)[C@H](Cc1ccccc1)NC(=O)[C@H](CCC(=O)O)NC(=O)[C@H](C)NC(=O)[C@H](CC(C)C)NC(=O)[C@H](CCCNC(=N)N)NC(=O)[C@H](CCC(N)=O)NC(=O)[C@@H](NC(=O)[C@H](C)NC(=O)[C@@H]1CSSC[C@H](NC(=O)[C@H](CCCCN)NC(=O)CC[C@H](NC(=O)CCCCCCCCCCCCCCCCCCC(=O)O)C(=O)O)C(=O)N[C@@H](CC(N)=O)C(=O)N[C@@H]([C@@H](C)O)C(=O)N[C@@H](C)C(=O)N[C@@H]([C@@H](C)O)C(=O)N1)[C@@H](C)O)C(=O)N1CCC[C@H]1C(=O)N[C@@H](CO)C(=O)N[C@@H](CO)C(=O)N[C@H](C(=O)N[C@@H](CC(N)=O)C(=O)N[C@H](C(=O)NCC(=O)N[C@@H](CO)C(=O)N[C@@H](CC(=O)O)C(=O)N[C@H](C(=O)N1CCC[C@H]1C(N)=O)[C@@H](C)O)C(C)C)[C@@H](C)O [Example 11] ({C20 diacid-γGlu}-KCNTATCATQRLAEFLRHSSPNFGAIPSSTNVGSDTP-NH2; disulfide 2-7) | 1.0 | 0.9 | – | – | – | – | – | – | – |
| CC[C@H](C)[C@H](NC(=O)[C@H](C)NC(=O)CNC(=O)[C@H](Cc1ccccc1)NC(=O)[C@H](CC(N)=O)NC(=O)[C@@H]1CCCN1C(=O)[C@H](CO)NC(=O)[C@H](CO)NC(=O)[C@H](Cc1c[nH]cn1)NC(=O)[C@H](CCCNC(=N)N)NC(=O)[C@H](CC(C)C)NC(=O)[C@H](Cc1ccccc1)NC(=O)[C@H](CCC(=O)O)NC(=O)[C@H](C)NC(=O)[C@H](CC(C)C)NC(=O)[C@H](CCCNC(=N)N)NC(=O)[C@H](CCC(N)=O)NC(=O)[C@@H](NC(=O)[C@H](C)NC(=O)[C@@H]1CSSC[C@H](NC(=O)[C@H](CCCCN)NC(=O)CC[C@H](NC(=O)CC[C@H](NC(=O)CCCCCCCCCCCCCCCCCCC(=O)O)C(=O)O)C(=O)O)C(=O)N[C@@H](CC(N)=O)C(=O)N[C@@H]([C@@H](C)O)C(=O)N[C@@H](C)C(=O)N[C@@H]([C@@H](C)O)C(=O)N1)[C@@H](C)O)C(=O)N1CCC[C@H]1C(=O)N[C@@H](CO)C(=O)N[C@@H](CO)C(=O)N[C@H](C(=O)N[C@@H](CC(N)=O)C(=O)N[C@H](C(=O)NCC(=O)N[C@@H](CO)C(=O)N[C@@H](CC(N)=O)C(=O)N[C@H](C(=O)N[C@@H](Cc1ccc(O)cc1)C(N)=O)[C@@H](C)O)C(C)C)[C@@H](C)O [Example 15] ({C20 diacid-γGlu-γGlu}-KCNTATCATQRLAEFLRHSSPNFGAIPSSTNVGSNTY-NH2; disulfide 2-7) | 26.0 | 8.9 | 26.0 | 26.0 | 8.9 | 8.9 | 8.9 | 8.9 | – |
| CC[C@H](C)[C@H](NC(=O)[C@H](C)NC(=O)CNC(=O)[C@H](Cc1ccccc1)NC(=O)[C@H](CC(N)=O)NC(=O)[C@@H]1CCCN1C(=O)[C@H](CO)NC(=O)[C@H](CO)NC(=O)[C@H](Cc1c[nH]cn1)NC(=O)[C@H](CCCNC(=N)N)NC(=O)[C@H](CC(C)C)NC(=O)[C@H](Cc1ccccc1)NC(=O)[C@H](CCC(=O)O)NC(=O)[C@H](C)NC(=O)[C@H](CC(C)C)NC(=O)[C@H](CCCNC(=N)N)NC(=O)[C@H](CCC(N)=O)NC(=O)[C@@H](NC(=O)[C@H](C)NC(=O)[C@@H]1CSSC[C@H](NC(=O)[C@H](CCCCN)NC(=O)CC[C@H](NC(=O)CCCCCCCCCCCCCCCCCCC(=O)O)C(=O)O)C(=O)N[C@@H](CC(N)=O)C(=O)N[C@@H]([C@@H](C)O)C(=O)N[C@@H](C)C(=O)N[C@@H]([C@@H](C)O)C(=O)N1)[C@@H](C)O)C(=O)N1CCC[C@H]1C(=O)N[C@@H](CO)C(=O)N[C@@H](CO)C(=O)N[C@H](C(=O)N[C@@H](CC(N)=O)C(=O)N[C@H](C(=O)NCC(=O)N[C@@H](CO)C(=O)N[C@@H](Cc1c[nH]cn1)C(=O)N[C@H](C(=O)N[C@@H](Cc1ccc(O)cc1)C(N)=O)[C@@H](C)O)C(C)C)[C@@H](C)O [Example 18] ({C20 diacid-γGlu}-KCNTATCATQRLAEFLRHSSPNFGAIPSSTNVGSHTY-NH2; disulfide 2-7) | 9.2 | 4.8 | – | – | – | – | – | – | – |
| CC[C@H](C)[C@H](NC(=O)[C@H](C)NC(=O)CNC(=O)[C@H](Cc1ccccc1)NC(=O)[C@H](CC(N)=O)NC(=O)[C@@H]1CCCN1C(=O)[C@H](CO)NC(=O)[C@H](CO)NC(=O)[C@H](Cc1c[nH]cn1)NC(=O)[C@H](CCCNC(=N)N)NC(=O)[C@H](CC(C)C)NC(=O)[C@H](Cc1ccccc1)NC(=O)[C@H](CCC(=O)O)NC(=O)[C@H](C)NC(=O)[C@H](CC(C)C)NC(=O)[C@H](CCCNC(=N)N)NC(=O)[C@H](CCC(N)=O)NC(=O)[C@@H](NC(=O)[C@H](C)NC(=O)[C@@H]1CSSC[C@H](NC(=O)[C@H](CCCCN)NC(=O)CC[C@H](NC(=O)CCCCCCCCCCCCCCCCCCC(=O)O)C(=O)O)C(=O)N[C@@H](CC(N)=O)C(=O)N[C@@H]([C@@H](C)O)C(=O)N[C@@H](C)C(=O)N[C@@H]([C@@H](C)O)C(=O)N1)[C@@H](C)O)C(=O)N[C@@H](CC(C)C)C(=O)N1CCC[C@H]1C(=O)N[C@@H](CO)C(=O)N[C@H](C(=O)N[C@@H](CC(N)=O)C(=O)N[C@H](C(=O)NCC(=O)N[C@@H](CO)C(=O)N[C@@H](CCC(=O)O)C(=O)N[C@H](C(=O)N[C@@H](Cc1ccc(O)cc1)C(N)=O)[C@@H](C)O)C(C)C)[C@@H](C)O [Example 33] ({C20 diacid-γGlu}-KCNTATCATQRLAEFLRHSSPNFGAILPSTNVGSETY-NH2; disulfide 2-7) | 3.9 | 2.2 | – | – | – | – | – | – | 2.2 |
| CC[C@H](C)[C@H](NC(=O)[C@H](C)NC(=O)CNC(=O)[C@H](Cc1ccccc1)NC(=O)[C@H](CC(N)=O)NC(=O)[C@@H]1CCCN1C(=O)[C@H](CO)NC(=O)[C@H](CO)NC(=O)[C@H](Cc1c[nH]cn1)NC(=O)[C@H](CCCNC(=N)N)NC(=O)[C@H](CC(C)C)NC(=O)[C@H](Cc1ccccc1)NC(=O)[C@H](CCC(=O)O)NC(=O)[C@H](C)NC(=O)[C@H](CC(C)C)NC(=O)[C@H](CCCNC(=N)N)NC(=O)[C@H](CCC(N)=O)NC(=O)[C@@H](NC(=O)[C@H](C)NC(=O)[C@@H]1CSSC[C@H](NC(=O)[C@H](CCCCN)NC(=O)CC[C@H](NC(=O)CCCCCCCCCCCCCCCCCCC(=O)O)C(=O)O)C(=O)N[C@@H](CC(N)=O)C(=O)N[C@@H]([C@@H](C)O)C(=O)N[C@@H](C)C(=O)N[C@@H]([C@@H](C)O)C(=O)N1)[C@@H](C)O)C(=O)N1CCC[C@H]1C(=O)N[C@@H](CO)C(=O)N1CCC[C@H]1C(=O)N[C@H](C(=O)N[C@@H](CC(N)=O)C(=O)N[C@H](C(=O)NCC(=O)N[C@@H](CO)C(=O)N[C@@H](CC(N)=O)C(=O)N[C@H](C(=O)N[C@@H](Cc1ccc(O)cc1)C(N)=O)[C@@H](C)O)C(C)C)[C@@H](C)O [Example 37] ({C20 diacid-γGlu}-KCNTATCATQRLAEFLRHSSPNFGAIPSPTNVGSNTY-NH2; disulfide 2-7) | 2.3 | 4.0 | – | – | – | – | – | – | – |

— patent US8575091B1, “Amylin analogues and pharmaceutical compositions thereof” (Novo Nordisk A/S, priority 2012, dated 2013)
